PMC6530361, “Anti-tumor Efficacy Assessment of the Sigma Receptor Pan Modulator RC-106. A Promising Therapeutic Tool for Pancreatic Cancer” (Frontiers in Pharmacology, 2019)
Like-named read-outs stand apart in the source and are kept apart here.

Test: In vivo pancreas distribution study
Parameters: species or system male CD-1 mice
Conditions: male, CD-1, mouse, ip, mice
Method: The experiments were performed in agreement with the Italian Law D. L.vo 4 marzo 2014, n. 26. The treatments involved male CD-1 mice and a unique number on the tail identified each animal. Mice were housed, in groups of four, in cages suitable for the species. After 5 days of adaptation to the local housing conditions, animals were housed in a single, exclusive, air-conditioned room to provide a minimum of 15 air changes/hour. The environmental controls were set to maintain the temperature at around 22°C and the relative humidity within the range 50 to 60%, along with an approximate 12:12 h light/dark cycle automatically controlled. Food (Mucedola Standard GLP diet) and water were available ad libitum throughout the entire duration of the study. All animals were weighted on the day of the treatment.
Mice (n = 4/time point) received an intraperitoneal administration (i.p., 10 mL/kg) of RC-106 at 10 mg/kg. CD-1 male mice were exsanguinated under anesthesia (isoflurane) from the aorta at the following time points: 5, 10, 30, 120, 240, and 480 min. Blood samples were collected in tubes containing heparin, gently mixed and immediately placed on ice. Afterward, they have been centrifuged (3500 × g, at 4°C for 15 min), the obtained plasma has been collected and transferred to individually labeled tubes and frozen at -20°C until the analysis. Plasma samples were used for quantification of RC-106. […] The organ was homogenized using a Velp OV5 homogenizer with 20 mM ammonium formiate buffer in a ratio of 1 g of tissue per 10 mL of buffer.
20 mg/mL stock solution (s.s.) of RC-106 was prepared by dissolving the compound in DMSO. 1 mL of 5% Tween80 in H2O was slowly added to 500 μL of s.s. under stirring. Then 8.5 mL of water was gently spiked to obtain the 1 mg/mL formulation of RC-106.
Standard curves of RC-106 were prepared for plasma and pancreas homogenate, and analyzed together with each QC and unknown sample set. For the PK and pancreas distribution sample analysis, plasma and pancreas homogenate samples (50 μL) were spiked in 200 μL of IS in MeOH (0.1 μg/mL of RC-33), followed by 2 min vortex mixing. Samples were centrifuged and transferred in UFLC vials. 5 μL aliquots of the collected samples were injected into the LC-MS/MS system. Standard calibration graphs were constructed by linear least-squares regression analysis on the analyte/IS area ratio plotted against sample concentration. Calibration ranges were from 5 to 1000 ng/mL for plasma, and from 5 to 500 ng/mL for pancreas homogenate. Accuracy values were determined in triplicates at three different concentrations (high, medium, and low) in the range of linearity of the calibration curves.
Analyses were acquired on a Shimadzu AC20 UFLC system interfaced with an API 3200 Triple Quadrupole detector (AB Sciex). Data acquisition and control were performed using the Analyst^TM 6.1 (Applied Biosystems) Software. A Phenomenex Gemini-NX C18 (50 mm × 2 mm, 5 μm) column was selected to carry out the analytical evaluations. A gradient method was set up (Supplementary Table S1) and it provided the employment of water and methanol, both containing 0.1% of formic acid, at a flow rate of 0.3 mL/min. The LC eluate was directly introduced into the MS interface using the ESI in the positive ion mode. The MRM transitions m/z 181.2 were tracked (Supplementary Table S2).

AUC(0-t) (pancreas, 10 mg/kg, i.p., 10 mg/kg, read-out: AUC0-t, pancreas (converted)): 28.8 µg·h/mL
concentration at 5 min (pancreas, 5 min after i.p. 10 mg/kg, read-out: pancreas C): 25300 ng/g
concentration at 10 min (pancreas, 10 min after i.p. 10 mg/kg, read-out: pancreas C): 13900 ng/g
concentration at 30 min (pancreas, 30 min after i.p. 10 mg/kg, read-out: pancreas C): 11100 ng/g
concentration at 120 min (pancreas, 120 min after i.p. 10 mg/kg, read-out: pancreas C): 2710 ng/g
concentration at 240 min (pancreas, 240 min after i.p. 10 mg/kg, read-out: pancreas C): 2310 ng/g
concentration at 480 min (pancreas, 480 min after i.p. 10 mg/kg, read-out: pancreas C): 995 ng/g
Tmax (pancreas, 10 mg/kg): 5 min
Cmax (pancreas, i.p., 10 mg/kg, read-out: Cmax, pancreas): 25300 ± 5600 ng/g
Cmax (pancreas, i.p., 10 mg/kg, read-out: Cmax, pancreas (molar)): ~70 µM
half-life (pancreas, i.p., 10 mg/kg, read-out: t1/2, pancreas): 4 h
Kp (pancreas/plasma, 10 mg/kg, i.p., 10 mg/kg, read-out: AUC0-t pancreas/AUC0-t plasma): ~25
SMILES: C/C(=C\CN1CCC(Cc2ccccc2)CC1)c1ccc2ccccc2c1 [RC-106, (E)-4-benzyl-1-(3-(naphthalen-2-yl)but-2-en-1-yl)piperidine]
